Reference: patent publication US20260250290A1 (BRISTOL-MYERS SQUIBB COMPANY, priority 2023, published 2026)
Structures can show the parent of a compound that is named as a salt.

Target: T1, SGK1 (Homo sapiens, UniProt O00141)
T1 sequence (O00141 1-431): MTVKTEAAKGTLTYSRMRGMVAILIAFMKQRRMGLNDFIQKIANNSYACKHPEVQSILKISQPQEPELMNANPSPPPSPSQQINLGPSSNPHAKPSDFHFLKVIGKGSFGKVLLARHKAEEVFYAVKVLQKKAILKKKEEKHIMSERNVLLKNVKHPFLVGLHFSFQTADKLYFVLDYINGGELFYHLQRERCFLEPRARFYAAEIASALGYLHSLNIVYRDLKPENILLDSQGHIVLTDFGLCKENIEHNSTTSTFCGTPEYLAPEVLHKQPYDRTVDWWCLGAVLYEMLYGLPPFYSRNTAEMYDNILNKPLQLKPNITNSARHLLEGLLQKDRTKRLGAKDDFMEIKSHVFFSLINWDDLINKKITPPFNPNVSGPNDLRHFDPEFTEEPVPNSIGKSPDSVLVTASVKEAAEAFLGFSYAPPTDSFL
Assay: SGK1 inhibition Assay B (Echo mass spectrometry of phosphorylated peptide product)
Assay type: biochemical
Conditions: 60 min at room temperature

Molecule	IC50 [nM]
Cc1nc(O[C@@H]2C[C@H]3CC[C@@H](C2)N3C2CC(O)C2)c(C(=O)N[C@@H]2CCCN(c3cc(-c4ccc(-n5cnnn5)c(F)c4)n4ncnc(N)c34)C2)s1 (stereo partly drawn) [Example 929, N—((R)-1-(4-amino-7-(3-fluoro-4-(1H-tetrazol-1-yl)phenyl)pyrrolo[2,1-f][11,2,4]triazin-5-yl)piperidin-3-yl)-4-(((1R,3s,5S)-8-(3-hydroxycyclobutyl)-8-azabicyclo[3.2.1]octan-3-yl)oxy)-2-methylthiazole-5-carboxamide TFA salt]	1
CN(C)CC(=O)N1CC2CCC1CC2Oc1cc(Cl)sc1C(=O)N[C@@H]1CCCN(c2cc(-c3ccc(-n4cnnn4)nc3)n3ncnc(N)c23)C1 (stereo partly shown) [Example 990]	1
CN1CCN(c2cccc(C(=O)N[C@@H]3CCCN(c4cc(-c5cnn(C(F)F)c5)n5ncnc(N)c45)C3)n2)CC1 [Example 807, (R)-N-(1-(4-amino-7-(1-(difluoromethyl)-1H-pyrazol-4-yl)pyrrolo[2,1-f][1,2,4]triazin-5-yl)piperidin-3-yl)-6-(4-methylpiperazin-1-yl)picolinamide, TFA salt]	41
CC1=C(c2cc(N3CCC[C@@H](NC(=O)c4sc(C)nc4OC4CCC(N(C)C)CC4)C3)c3c(N)ncnn23)COC1=O (stereo partly drawn) [Example 1017, N—((R)-1-(4-amino-7-(4-methyl-5-oxo-2,5-dihydrofuran-3-yl)pyrrolo[2,1-f][1,2,4]triazin-5-yl)piperidin-3-yl)-4-(((1S,4S)-4-(dimethylamino)cyclohexyl)oxy)-2-(methyl-d3)thiazole-5-carboxamide]	1.6
CCOC1=C(C(=O)N[C@@H]2CCCN(c3cc(C4=CCN(C(C)=O)C4)n4ncnc(N)c34)C2)CN(C2(C(F)(F)F)CC2)C1=O [Example 757, (R)-N-(1-(7-(1-acetyl-2,5-dihydro-1H-pyrrol-3-yl)-4-aminopyrrolo[2,1-f][1,2,4]triazin-5-yl)piperidin-3-yl)-4-ethoxy-5-oxo-1-(1-(trifluoromethyl)cyclopro-pyl)-2,5-dihydro-1H-pyrrole-3-carboxamide]	89
COC(=O)N1CC=C(c2cc(N3CCC[C@@H](NC(=O)c4cccc(N5CC6(C5)CN(C(C)C)C6)n4)C3)c3c(N)ncnn23)C1 [Example 819, methyl (R)-3-(4-amino-5-(3-(6-(6-isopropyl-2,6-diazaspiro[3.3]heptan-2-yl)picolinamido)piperidin-1-yl)pyrrolo[2,1-f][1,2,4]triazin-7-yl)-2,5-dihydro-1H-pyrrole-1-carboxylate]	21
Cc1cc(-c2cc(N3CCC[C@@H](NC(=O)c4ccnc(N5CCN(C)CC5)n4)C3)c3c(N)ncnn23)ccc1-n1cnnn1 [Example 850, (R)-N-(1-(4-amino-7-(3-methyl-4-(1H-tetrazol-1-yl)phenyl)pyrrolo[2,1-f][1,2,4]triazin-5-yl)piperidin-3-yl)-2-(4-methylpiperazin-1-yl)pyrimidine-4-carboxamide]	10
CC(C)N1CC2(CN(c3cccc(C(=O)N[C@@H]4CCCN(c5cc(-c6ccc(-n7cnnn7)c(F)c6F)n6ncnc(N)c56)C4)n3)C2)C1 [Example 823, (R)-N-(1-(4-amino-7-(2,3-difluoro-4-(1H-tetrazol-1-yl)phenyl)pyrrolo[2,1-f][1,2,4]triazin-5-yl)piperidin-3-yl)-6-(6-isopropyl-2,6-diazaspiro[3.3]heptan-2-yl)picolinamide]	18
Cc1nc(O[C@@H]2C[C@H]3CC[C@@H](C2)N3CCO)c(C(=O)N[C@@H]2CCCN(c3cc(-c4ccc(-n5cnnn5)c(F)c4)n4ncnc(N)c34)C2)s1 [Example 960, N—((R)-1-(4-amino-7-(3-fluoro-4-(1H-tetrazol-1-yl)phenyl)pyrrolo[2,1-f][1,2,4]triazin-5-yl)piperidin-3-yl)-4-(((1R,3s,5S)-8-(2-hydroxyethyl)-8-azabicyclo [3.2.1]octan-3-yl)oxy)-2-methylthiazole-5-carboxamide]	1
(R)-N-(1-(4-amino-7-(4-(5-methyl-1H-tetrazol-1-yl)phenyl)pyrrolo[2,1-f][1,2,4]triazin-5-yl)piperidin-3-yl)-2-(4-methylpiperazin-1-yl)pyrimidine-4-carboxamide [Example 857]	15
CN1[C@@H]2CC[C@H]1C[C@H](Oc1cc(Cl)sc1C(=O)N[C@@H]1CCCN(c3cc(-c4ccc(C(F)(F)F)c(F)c4)n4ncnc(N)c34)C1)C2 [Example 841, N-((R)-1-(4-amino-7-(3-fluoro-4-(trifluoromethyl)phenyl)pyrrolo[2,1-f][1,2,4]triazin-5-yl)piperidin-3-yl)-5-chloro-3-(((1R,3s,5S)-8-methyl-8-azabicyclo[3.2.1]octan-3-yl)oxy)thiophene-2-carboxamide]	17
N—((R)-1-(4-amino-7-(5-fluoro-1-(2-methoxyethyl)-6-oxo-1,6-dihydropyridin-3-yl)pyrrolo[2,1-f][1,2,4]triazin-5-yl)piperidin-3-yl)-5-chloro-3-(((1R,3s,5S)-8-methyl-8-azabicyclo[3.2.1]octan-3-yl)oxy)thiophene-2-carboxamide [Example 974]	1
Cc1nc(O[C@H]2CC[C@@H](NCCC#N)CC2)c(C(=O)N[C@@H]2CCCN(c3cc(-c4ccc(C(N)=O)c(F)c4)n4ncnc(N)c34)C2)s1 [Example 979, N—((R)-1-(4-Amino-7-(4-carbamoyl-3-fluorophenyl)pyrrolo[2,1-f][1,2,4]triazin-5-yl)piperidin-3-yl)-4-(((1s,4S)-4-((2-cyanoethyl)amino)cyclohexyl)oxy)-2-methylthiazole-5-carboxamide]	4
Cc1cc(O[C@@H]2C[C@H]3CC[C@@H](C2)N3C)c(C(=O)N[C@@H]2CCCN(c3cc(-c4cc(F)c(-n5cnnn5)c(F)c4)n4ncnc(N)c34)C2)s1 [Example 844, N-((R)-1-(4-amino-7-(3,5-difluoro-4-(1H-tetrazol-1-yl)phenyl)pyrrolo[2,1-f][1,2,4]triazin-5-yl)piperidin-3-yl)-5-methyl-3-(((1R,3s,5S)-8-methyl-8-azabicyclo[3.2.1]octan-3-yl)oxy)thiophene-2-carboxamide]	3
Cc1nc(O[C@H]2CC[C@@](C)(N)CC2)c(C(=O)N[C@@H]2CCCN(c3cc(-c4ccc(-n5cnnn5)c(F)c4)n4ncnc(N)c34)C2)s1 [Example 934, 4-(((1s,4S)-4-Amino-4-methylcyclohexyl)oxy)-N—((R)-1-(4-amino-7-(3-fluoro-4-(1H-tetrazol-1-yl)phenyl)pyrrolo[2,1-f][1,2,4]triazin-5-yl)piperidin-3-yl)-2-methylthiazole-5-carboxamide]	0.5

The remaining lines, values ahead:

IC50 [nM]	Molecule
0.6	CCC(C)(C)NC1CCC(Oc2nc(C)sc2C(=O)N[C@@H]2CCCN(c3cc(C4=CC(=O)OC4)n4ncnc(N)c34)C2)CC1 (stereo partly drawn) [Example 1001, (R)—N-(1-(4-amino-7-(5-oxo-2,5-dihydrofuran-3-yl)pyrrolo[2,1-f][1,2,4]triazin-5-yl)piperidin-3-yl)-2-methyl-4-((4-(tert-pentylamino)cyclohexyl)oxy)thiazole-5-carboxamide]
1	CC(=O)N1CC=C(c2cc(N3CCC[C@@H](NC(=O)c4cc5[nH]ccc5s4)C3)c3c(N)ncnn23)C1 [Example 923, (R)—N-(1-(7-(1-acetyl-2,5-dihydro-1H-pyrrol-3-yl)-4-aminopyrrolo[2,1-f][1,2,4]triazin-5-yl)piperidin-3-yl)-4H-thieno[3,2-b]pyrrole-2-carboxamide]
13	CNC(=O)c1ccc(-c2cc(N3CCC[C@@H](NC(=O)c4sc(Cl)cc4OCCN(C)C)C3)c3c(N)ncnn23)cn1 [Example 835, (R)-5-(4-amino-5-(3-(5-chloro-3-(2-(dimethylamino)ethoxy)thiophene-2-carboxamido)piperidin-1-yl)pyrrolo[2,1-f][1,2,4]triazin-7-yl)-N-methylpicolinamide]
0.9	Cc1nc(OC2CCC(N3CCC3)CC2)c(C(=O)N[C@@H]2CCCN(c3cc(-c4nc(C(N)=O)cs4)n4ncnc(N)c34)C2)s1 (stereo partly drawn) [Example 1052, (R)-2-(4-amino-5-(3-(4-((4-(azetidin-1-yl)cyclohexyl)oxy)-2-methylthiazole-5-carboxamido)piperidin-1-yl)pyrrolo[2,1-f][1,2,4]triazin-7-yl)thiazole-4-carboxamide]
2	Cc1cc(O[C@@H]2C[C@H]3CC[C@@H](C2)N3C)c(C(=O)N[C@@H]2CCCN(c3cc(-c4ccc(-n5cnnn5)c(F)c4)n4ncnc(N)c34)C2)s1 [Example 847, N-((R)-1-(4-amino-7-(3-fluoro-4-(1H-tetrazol-1-yl)phenyl)pyrrolo[2,1-f][1,2,4]triazin-5-yl)piperidin-3-yl)-5-methyl-3-(((1R,3s,5S)-8-methyl-8-azabicyclo[3.2.1]octan-3-yl)oxy)thiophene-2-carboxamide, TFA salt]
0.8	CC[C@H](CO)NC1CCC(Oc2nc(C)sc2C(=O)N[C@@H]2CCCN(c3cc(-c4csc(C(=O)NC)n4)n4ncnc(N)c34)C2)CC1 (stereo partly drawn) [Example 1053, 4-(4-amino-5-((R)-3-(4-((4-(((R)-1-hydroxybutan-2-yl)amino)cyclohexyl)oxy)-2-methylthiazole-5-carboxamido)piperidin-1-yl)pyrrolo[2,1-f][1,2,4]triazin-7-yl)-N-methylthiazole-2-carboxamide]
2	CC(C)N1CC2CC(Oc3cc(Cl)sc3C(=O)N[C@@H]3CCCN(c4cc(-c5ccc(-n6cnnn6)nc5)n5ncnc(N)c45)C3)CC2C1 (stereo partly drawn) [Example 959, N—((R)-1-(7-(6-(1H-tetrazol-1-yl)pyridin-3-yl)-4-aminopyrrolo[2,1-f][1,2,4]triazin-5-yl)piperidin-3-yl)-5-chloro-3-(((3aR,6aS)-2-isopropyloctahydrocyclopenta[c]pyrrol-5-yl)oxy) thiophene-2-carboxamide]
